Here are results for three compounds from PMC8587849, “Antimicrobial and Anticancer Application of Silver(I) Dipeptide Complexes” (Molecules, 2021).

Where “and” joins values, the source holds several entries; their conditions need not be identical. Equal entries are not always repeated. Where two headings read alike, the source gives them in different places. Some results are limits rather than exact numbers.

For series [1], the system named is MCF-7. On the set-up: method as in PMID 33461021. The note with it: cited from earlier work.
Series [2] deals with MDA-MB-231. On the set-up: method as in PMID 33461021. The note with it: cited from earlier work.
A further series concerns MCF-7 cells. The note with it: cited from earlier work.
Series [3] concerns Escherichia coli (E. coli) CCM 3988. The series can be described thus: Antibacterial activity, macrodilution method. It counts as cell-based.
Procedure: (§4) Cultures of bacteria (in Mueller-Hinton broth, MHB) and yeasts (in Sabouraud’s growth medium, SB) were incubated under shaking (250 rpm) at 37 °C. The growth of bacteria and yeasts was evaluated by measuring the absorbance of the growing cultures (A550) until the cultures reached the stationary growth phase. […] The final concentration of DMSO never exceeded 1.0 vol. % in the control or treated samples. […] The IC50 and MIC90 with respect to MIC80 values were evaluated from toxicity curves.
In series [4] the test system is Staphylococcus aureus CCM 3953. The series can be described thus: Antibacterial activity, macrodilution method. The note with it: S. aureus. Format: cell-based.
Procedure: as §4
The test system of series [5] is methicillin-resistant Staphylococcus aureus L12. In words: Antibacterial activity, macrodilution method. Format: cell-based. The note with it: S. aureus L12 (MRSA).
Procedure: as §4
The subject of series [6] is Staphylococcus epidermidis CCM 7221. In words: Antibacterial activity, macrodilution method. Format: cell-based. The note with it: S.epidermidis.
Procedure: as §4
The test system of series [7] is Candida parapsilosis ATCC 22019. In words: Antifungal activity (yeast), macrodilution method. It counts as cell-based. The note with it: C. parapsilosis.
Procedure: as §4
Another series deals with Candida albicans SC 5314. The series can be described thus: Antifungal activity (yeast), macrodilution method. It counts as cell-based. The note with it: C. albicans.
Series [8] deals with Rhizopus oryzae CCM F-8284. In words: Antifungal activity (filamentous fungi), macrodilution on solidified PDA. Format: cell-based.
Procedure: (§5) Cultures of bacteria (in Mueller-Hinton broth, MHB) and yeasts (in Sabouraud’s growth medium, SB) were incubated under shaking (250 rpm) at 37 °C. The growth of bacteria and yeasts was evaluated by measuring the absorbance of the growing cultures (A550) until the cultures reached the stationary growth phase. […] During culturing, the diameters of growing fungal colonies were measured at regular intervals [71, 72]. […] The final concentration of DMSO never exceeded 1.0 vol. % in the control or treated samples. […] The IC50 and MIC90 with respect to MIC80 values were evaluated from toxicity curves.
Series [9] relates to Alternaria alternata CCM F-128. The series is described as above. It counts as cell-based. The note with it: A. alternata.
Procedure: as §5
A further series has as its system A.flavus. In words: Antifungal activity (filamentous fungi). It counts as cell-based. The note with it: read-out: IC50 and MIC100 (class symbol).
The test system of series [10] is Microsporum gypseum CCM F-8342. The series can be described thus: Antifungal activity (filamentous fungi), macrodilution on solidified PDA. It counts as cell-based. The note with it: M.gypseum.
Procedure: as §5
The next series has as its system S. aureus biofilm. The series can be described thus: Influence on S. aureus biofilm formation, crystal violet staining. It counts as cell-based. The note with it: for A570 (biofilm, crystal violet): control A570 = 0.47; for I: biofilm intensity: control strong.
The subject of a further series is HeLa. The series can be described thus: MTS antiproliferative assay. It counts as cell-based, human. The note with it: 72 h. The protocol:
(§1) After 72 h of incubation, 10 µL of MTS was added to each well. […] IC50 values were calculated from MTS analyses.
(In general: Tetrazolium dyes change colour on reduction, which living cells bring about.)

For series [11], the system named is MCF-7. The series can be described thus: MTS antiproliferative assay. Format: cell-based, human. The note with it: 72 h. As for the experimental part:
as §1

Another series relates to BLM. The series can be described thus: MTS antiproliferative assay. Format: cell-based, human. As for the experimental part: (§2) Cells were maintained in standard conditions with an atmosphere containing 5% CO2 at 37 °C.
as §1

A further series has as its system HCT116. The series can be described thus: MTS antiproliferative assay. The note with it: 72 h. Format: cell-based, human. The protocol: as §2, §1
In another series the test system is Jurkat. In words: MTS antiproliferative assay. It counts as cell-based, human. The note with it: 72 h. The protocol:
as §2, §1

Series [12] concerns MDA-MB-231. In words: MTS antiproliferative assay. It counts as cell-based, human. The note with it: 72 h. The protocol: as §2, §1
A further series concerns BJ-5ta. In words: MTS assay on fibroblasts. The note with it: BJ-5ta human skin fibroblasts, 72 h. It counts as cell-based. As for the experimental part: as §1
A further series has as its system CT DNA. In words: UV-Vis absorption titration with CT DNA. It counts as binding, calf. The note with it: 0.01 M Tris-HCl pH 7.4; complex 7.85 × 10^−5 M. The protocol: UV–vis spectra were measured in 0.01 M Tris-HCl buffer (pH 7.4) using a Varian Cary 100 Bio spectrophotometer in the range of 230–320 nm and recorded at room temperature (24 °C) using a quartz cuvette of 1 cm path length. The concentration of investigated Ag(I) complexes was 7.85 × 10^−5 M. During the titration, an aliquot of buffered CT DNA solution was added to each cuvette (sample and reference) to eliminate the absorbance of DNA itself. The DNA concentration per nucleotide was determined by absorption spectroscopy using the molar absorption coefficient (6600 M^−1cm^−1) at 260 nm.

For the next series, the system named is CT DNA–HO system. The series can be described thus: Fluorescence competitive binding with Hoechst 33258. The note with it: displacement of Hoechst 33258 from CT DNA; 462 nm; 10 mM Tris-HCl pH 7.4. On the set-up: species or system calf. The protocol:
The fluorescence competitive binding studies of silver(I) complexes with Hoechst 33 258 (HO) were performed on a Varian Cary Eclipse spectrophotometer. The emission spectra of DNA–HO were measured in the range of 400–550 nm using an excitation wavelength of 343 nm with a slit width of 5 nm for the excitation and 5 nm for the emission beam. […] Ksv quenching constant was determined according to the classical Stern-Volmer Equation (1) in [63, 75]:F0/F = 1 + KSV [Q](1) where F0 and F are the fluorescence intensities in the absence and the presence of the quencher at 462 nm, KSV is the Stern-Volmer quenching constant and [Q] is the concentration of the quencher.

In the next series the test system is BLM cells. In words: Cell cycle analysis by flow cytometry. It counts as cell-based, human. The note with it: treated with IC50. The protocol:
(§3) Prior to each analysis, cells were washed in PBS, followed by resuspending in staining solution (0.5 mg/mL ribonuclease A, 0.2% final concentration Triton X-100, propidium iodide 0.025 mg/mL in 500 µL PBS) (all Sigma Aldrich), and incubated for 30 min at room temperature in the dark. For analysis of stained cells, a BD FACSCalibur flow cytometer (BD Bio-sciences) was used. A minimum of 1 × 10^4 events were analysed per analysis.
(In general: Flow cytometry measures light scatter and fluorescence of single cells or particles in a stream.)

A further series has as its system HCT116 cells. In words: Cell cycle analysis by flow cytometry. The note with it: treated with IC50. Format: cell-based, human. As for the experimental part: as §3
Another series concerns Jurkat cells. In words: Cell cycle analysis by flow cytometry. Format: cell-based, human. The note with it: treated with IC50. As for the experimental part: as §3
In the next series the test system is MDA-MB-231 cells. In words: Cell cycle analysis by flow cytometry. It counts as cell-based, human. The note with it: treated with IC50. The protocol: as §3
Another series has as its system S. thypimurium TA100. In words: Ames test, plate incorporation method. It counts as cell-based, Salmonella Typhimurium. The note with it: positive control, 100µg. For orientation: In the Ames test, an excess of revertant colonies over the control signals mutagenicity.
A further series relates to S. thypimurium TA98. The series can be described thus: Ames test, plate incorporation method. Format: cell-based, Salmonella Typhimurium. The note with it: positive control, 100µg.

Procedure for A.flavus: as §5
Procedure for Candida albicans SC 5314: as §5
Procedure for S. aureus biofilm: The biofilm was qualified by the crystal violet staining method. Briefly, overnight cultures of bacteria S.aureus (in MHB) and yeasts C.parapsislosis (in SB) were prepared. The fresh prepared growth media MHB and SB were inoculated with the overnight culture for a final concentration of 5 × 10^6 cells mL^−1. The microbial biofilm was formed in 96-well microplates for adherent cells. […] Prepared cultures were incubated for 2 h at 37 °C. […] The treatment with DMSO (solvent) alone served as a control. The inoculated microplates were incubated at 37 °C for the next 46 h. […] Microplates with mature biofilm were decanted and washed using 200 μL of saline solution. The plate was left for 15 min to dry completely at laboratory temperature. Then, 110 μL of 0.4% crystal violet dye was added to each well, and the plate was incubated for 15 min at laboratory temperature. After the decantation, the plate was washed 3 times with 200 μL of saline solution. Then, 200 μL of 96% ethanol was added. The microplate was left to incubate for 15 min at laboratory temperature. After the transfer of the well content to a clean microplate, the absorbance (570 nm) of released crystal violet (proportionate to biofilm cell density) was measured,, and the values were evaluated as weak biofilm formation A570 <0.1; 0.199>, medium biofilm formation A570 <0.2; 0.3>, strong biofilm formation A570 <0.301; 0.999>, or very strong biofilm formation A570 ≥ 1.00.
Source text for S. thypimurium TA100: (§6) Salmonella Typhimurium TA 98 and TA 100 were obtained from the Czech Collection of Microorganisms. As a positive mutagen, 3-(5-nitro-2-furyl) acrylic acid (NFAA) was used.
Source text for S. thypimurium TA98: as §6

With [Ag3(Gly)2NO3]n, the half-inhibitory concentration (IC50) (in general, the midpoint of a concentration-inhibition curve) was 2.6 ± 0.1 µM in the series with MCF-7 [1] and 2.7 ± 0.2 µM in the series on MDA-MB-231 [2]. The “cells in sub-G0 population” value in the series with MCF-7 cells (MFC-7 cancer cells, Control 9.8%, ref Banti et al.) is reported as 42.7%. Further, the “cells in S phase” value in the series with MCF-7 cells is 24.1%.

As for [Ag2(GlyAla)(NO3)2]n [AgGlyAla], the IC50 in series [3] turned out to be 6 µM; in series [4], 7 µM; in series [5] it was 9 µM; in series [6], 8 µM; in [7] it was 30 µM; in the series with Candida albicans SC 5314, 50 µM. The IC50 in [8] (read-out: IC50) is 30 µM; in series [9] (read-out: IC50), 42 µM; with A.flavus, > 100 µM; in series [10] (read-out: IC50) it was 75 µM; with HeLa, 33.2 µM; with MCF-7 [11], 7.5 µM. For the same compound, the IC50 in the series on BLM (BLM, MTS, 72 h) amounted to 10.9 µM; with HCT116, 28 µM; in the series with Jurkat it was 9.7 µM; with MDA-MB-231 [12], 7.4 µM; in the series with BJ-5ta it was 40.2 µM. The MIC90 (commonly the lowest concentration that inhibits either 90% of growth or 90% of the strains tested, depending on the study) in series [3] amounted to 9 µM; in [4] it was 11 µM; in series [5], 20 µM; in [6], 10 µM. The MIC80 (in general, the lowest concentration that inhibits either 80% of growth or 80% of the strains tested, depending on the study) in series [7] is 60 µM; against Candida albicans SC 5314, 87 µM. Also, the MIC100 is 50 µM in [8] (suffix s = fungistatic), > 100 µM in [9] (suffix s = fungistatic) and 100 µM in [10] (suffix s = fungistatic). For the same compound, the “A570 (biofilm, crystal violet)” value in the series with S. aureus biofilm (complex concentration 5 µM) came to 0.51; in the series on S. aureus biofilm (complex concentration 10 µM), 0.41; in the series on S. aureus biofilm (complex concentration 25 µM) it was 0.25; in the series with S. aureus biofilm (complex concentration 50 µM) it was 0.23; in the series on S. aureus biofilm (complex concentration 100 µM), 0.25. For the same compound, the entries for the “I: biofilm intensity” value in the series on S. aureus biofilm (complex concentration 5 µM), with S. aureus biofilm (complex concentration 10 µM) and in the series on S. aureus biofilm (complex concentration 100 µM) were “strong (strong biofilm formation A570 <0.301; 0.999>)”, “strong (strong biofilm formation A570 <0.301; 0.999>)” and “medium (medium biofilm formation A570 <0.2; 0.3>)”, respectively. Also, the “Selectivity index (SI)” value in the series with BLM (ratio of IC50 values BJ-5ta/BLM) was found to be 3.7. The Hypochromism in the series on CT DNA stood at 40.7%. The “Δλmax (red shift on addition of CT DNA)” value in the series with CT DNA was 9 nm. Besides, the “KSV (Stern-Volmer quenching constant)” value in the series on CT DNA–HO system is given as 7.97 ± 0.03 × 10^4 M^−1. The “cells in G2/M” value in the series on BLM cells (48 h) amounted to 28.9 ± 2.7%; in the series on BLM cells (72 h) it was 27.3 ± 1.3%; in the series with HCT116 cells (48 h), 14.0 ± 0.4%; in the series on HCT116 cells (72 h) it was 7.6 ± 1.7%; in the series on Jurkat cells (48 h), 17.9 ± 1.8%; in the series with Jurkat cells (72 h), 10.3 ± 3.1%. Also, the “cells in G2/M” value in the series with MDA-MB-231 cells (24 h) is 22.8 ± 2.5% and 22.8%; with MDA-MB-231 cells (48 h), 19.4 ± 0.1%. Also, the “cells in S” value with BLM cells (48 h) is 19.5 ± 0.1%; in the series on BLM cells (72 h) it was 18.8 ± 0.4%; in the series on HCT116 cells (48 h), 7.0 ± 0.3%; in the series with HCT116 cells (72 h) it was 8.1 ± 1.2%; in the series on Jurkat cells (48 h), 12.6 ± 0.5%; in the series on Jurkat cells (72 h) it was 12.1 ± 1.8%. The “cells in S” value in the series on MDA-MB-231 cells (24 h) came out at 11.2 ± 2.0%; with MDA-MB-231 cells (48 h), 11.1 ± 0.7%.

Consider `O=C(O)C=Cc1ccc([N+](=O)[O-])o1` [NFAA, 3-(5-nitro-2-furyl) acrylic acid], for which the “Revertants CFU No. ± SD” value with S. thypimurium TA100 worked out at 1352± 124 CFU; with S. thypimurium TA98 it was 28 ± 2 CFU.
